Active and inactive are the calls of the source. The rule behind the calls is not given here.
Legend:
Homo sapiens [1] = organism: Homo sapiens; assay: Binding affinity to 14C3 DNA triplex assessed as stabilization of triplex DNA form
Homo sapiens [2] = organism: Homo sapiens; assay: Binding affinity to 14C3 DNA triplex assessed as melting temperature change from triplex to duplex DNA forms by UV absorption spectrometry
Homo sapiens [3] = organism: Homo sapiens; assay: Binding affinity to 14C3 DNA triplex assessed as melting temperature for transition from triplex to duplex DNA forms by UV absorption spectrometry
Homo sapiens [4] = organism: Homo sapiens; assay: Binding affinity to 14C3 DNA triplex assessed as melting temperature change from duplex to single strand DNA forms by UV absorption spectrometry
Homo sapiens [5] = organism: Homo sapiens; assay: Binding affinity to 14C3 DNA triplex assessed as melting temperature for transition from duplex to single strand DNA forms by UV absorption spectrometry

Compound | Activity (Homo sapiens [1]) | ΔTm (Homo sapiens [2]) | Tm (Homo sapiens [3]) | ΔTm (Homo sapiens [4]) | Tm (Homo sapiens [5])
COc1ccc2c(ccc3[nH]c4c(C)cnc(NCCCN)c4c32)c1 | Active | – | – | – | –
CN(CCCN)c1ccc2c(c1)-n1c(nc3ccccc3c1=O)C2=O | – | 18.8 °C | 39.3 °C | 3.3 °C | 62.3 °C
COc1ccc2c(ccc3c2[nH]c2c(C)cnc(NCCCN(C)CCCN)c23)c1 | Active | – | – | – | –
NCCCNc1ccc2c(c1)-n1c(nc3ccccc3c1=O)C2=O | – | 13 °C | 33.5 °C | 5.7 °C | 64.7 °C
NCCCNc1cc2c(cc1F)C(=O)c1nc3ccccc3c(=O)n1-2 | – | 19.3 °C | 39.8 °C | 4.8 °C | 63.8 °C
CN(CCCN)c1cc2c(cc1F)C(=O)c1nc3ccccc3c(=O)n1-2 | – | 24.8 °C | 45.3 °C | 2.8 °C | 61.8 °C

Reference: ChEMBL document CHEMBL1139106, “Specific stabilization of DNA triple helices by indolo[2,1-b]quinazolin-6,12-dione derivatives” (Bioorg Med Chem Lett, 2007)
